Measured values as given in patent US11464802B2, “3-substituted piperidine compounds for Cbl-b inhibition, and use thereof” (Nurix Therapeutics, Inc., priority 2019, dated 2022).
Like-named read-outs stand apart in the source and are kept apart here.

Assays:
Cbl-b = Cbl-b (Homo sapiens (Human), UniProt Q13191); assay: Cbl-b displacement assay (Cbl-b inhibition assay), TR-FRET probe displacement, Biological Example 1; assay type: binding
Description: Candidate compounds were evaluated for their ability to bind and inhibit Cbl-b, an E3 ubiquitin-protein ligase, as evidenced by their ability to displace a fluorophore-labeled probe (Example 46) bound to Cbl-b.
The ability of candidate compounds to displace a known inhibitor and thereby inhibit Cbl-b activity was measured by monitoring the interaction of Cbl-b with a fluorophore-labeled probe in the presence of the candidate compound. A truncated variant of Cbl-b (UniProt number Q13191; SEQ ID NO:1) containing an Avitag at its N-terminus was co-expressed with BirA biotin ligase and purified using a standard protocol (see Dou et al., Nature Structural and Molecular Biology 8: 982-987, 2013; Avidity LLC).
Fluorescently-labeled inhibitor probe was synthesized and tagged with BODIPY FL (Example 46). Cbl-b displacement assays were performed in a 384-well plate at room temperature in a 10 μL reaction volume by pre-incubating 0.5 nM Cbl-b or 0.125 nM Cbl-b (final concentration, indicated as “High” and “Low”, respectively) in an assay buffer containing 20 mM HEPES pH 7.5, 150 mM NaCl, 0.01% Triton X-100, 0.01% BSA, and 0.5 mM TCEP in the presence of a candidate compound in 1% DMSO (final concentration) for 1 hour. After incubation in the presence of the candidate compound, the plate was incubated for an additional 1 hour in the presence of an approximate EC40 binding saturation consisting of 150 nM fluorescently-labeled inhibitor probe and 2 nM Streptavidin-Terbium (Cisbio) (final concentrations). Following the 1 hour incubation, the plates were read for TR-FRET signal at 520/620 nM using an Envision plate reader (Perkin Elmer).

[1] = tested on: primary human total T-cells; assay: Primary human total T-cell activation: IL-2 secretion, Biological Example 2; assay type: cell-based; conditions: 48 hours, fold change over baseline; for fold induction at 0.3 µM: inhibitor 0.3 μM; for fold induction at 1 µM: inhibitor 1 μM; for fold induction at 3 µM: inhibitor 3 μM
[2] = tested on: primary human total T-cells; assay: Primary human total T-cell activation: CD25 surface staining, Biological Example 2; assay type: cell-based; conditions: 48 hours, fold change over baseline; for fold induction at 0.3 µM: inhibitor 0.3 μM; for fold induction at 1 µM: inhibitor 1 μM; for fold induction at 3 µM: inhibitor 3 μM
[3] = 0.5 nM Cbl-b final concentration (High), read-out: Cbl-b activity IC50 (High)
[4] = Cbl-b concentration (High or Low) not given, read-out: IC50 values in the Cbl-b inhibition assay of Biological Example 1
[5] = anti-CD3/anti-CD28 co-stimulation
[6] = anti-CD3/anti-CD28 co-stimulation, read-out: IL-2 secretion CD3/CD28 1 μM
[7] = anti-CD3 alone, read-out: IL-2 secretion CD3 1 μM
[8] = anti-CD3/anti-CD28 co-stimulation, read-out: CD25 staining CD3/CD28 1 μM
[9] = anti-CD3 alone, read-out: CD25 staining CD3 1 μM
[10] = 0.125 nM Cbl-b final concentration (Low), read-out: Cbl-b activity IC50 (Low)

Chain of Cbl-b (Q13191 36-427): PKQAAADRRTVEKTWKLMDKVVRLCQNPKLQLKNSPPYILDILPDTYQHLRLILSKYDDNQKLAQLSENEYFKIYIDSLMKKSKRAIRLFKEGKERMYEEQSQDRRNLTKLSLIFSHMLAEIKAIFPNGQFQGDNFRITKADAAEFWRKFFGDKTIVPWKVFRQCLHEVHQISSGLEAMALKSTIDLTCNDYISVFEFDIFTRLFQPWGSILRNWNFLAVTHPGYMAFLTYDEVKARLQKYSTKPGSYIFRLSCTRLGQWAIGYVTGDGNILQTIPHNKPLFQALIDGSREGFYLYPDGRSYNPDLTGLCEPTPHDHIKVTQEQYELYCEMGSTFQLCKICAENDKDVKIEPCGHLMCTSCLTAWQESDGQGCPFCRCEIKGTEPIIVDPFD

Row | SMILES | IC50 (Cbl-b; [3]) | IC50 (Cbl-b; [4]) | fold induction at 0.3 µM [1, 5] | fold induction at 1 µM [1, 6] | fold induction at 1 µM [1, 7] | fold induction at 3 µM ([1]; anti-CD3 alone) | fold induction at 0.3 µM [2, 5] | fold induction at 1 µM [2, 8] | fold induction at 1 µM [2, 9] | fold induction at 3 µM ([2]; anti-CD3 alone) | IC50 (Cbl-b; [10])
1 | C[C@@H]1CN(Cc2cc3c(c(C(F)(F)F)c2)CN(c2cc(C4(Cc5nncn5C)COC4)cc(NC4COC4)n2)C3=O)CCC1(F)F [Compound 29, (R)-6-((4,4-difluoro-3-methylpiperidin-1-yl)methyl)-2-(4-(3-((4-methyl-4H-1,2,4-triazol-3-yl)methyl)oxetan-3-yl)-6-(oxetan-3-ylamino)pyridin-2-yl)-4-(trifluoromethyl)isoindolin-1-one] | 5.1 to 100 nM | 5.1 to 100 nM | 11 to 15 | 11 to 15 | 0.34 to 0.66 | 0.34 to 0.66 | < 1.24 | < 1.24 | < 1.04 | < 1.04 | –
2 | C[C@@H]1CN(Cc2cc3c(c(C(F)(F)F)c2)CN(c2cc(C4(Cc5nncn5C)COC4)cc(C4CC4)n2)C3=O)CCC1(F)F [Compound 30, (R)-2-(6-cyclopropyl-4-(3-((4-methyl-4H-1,2,4-triazol-3-yl)methyl)oxetan-3-yl)pyridin-2-yl)-6-((4,4-difluoro-3-methylpiperidin-1-yl)methyl)-4-(trifluoromethyl)isoindolin-1-one] | 5.1 to 100 nM | 5.1 to 100 nM | > 15 | > 15 | 0.34 to 0.66 | 0.34 to 0.66 | < 1.24 | < 1.24 | < 1.04 | < 1.04 | –
3 | C[C@@H]1CN(Cc2cc3c(c(C(F)(F)F)c2)CN(c2cccc(C4(Cc5nncn5C(F)F)COC4)c2)C3=O)CCC1(F)F [Compound 31, (R)-6-((4,4-difluoro-3-methylpiperidin-1-yl)methyl)-2-(3-(3-((4-(difluoromethyl)-4H-1,2,4-triazol-3-yl)methyl)oxetan-3-yl)phenyl)-4-(trifluoromethyl)isoindolin-1-one] | – | 1 to 5 nM | > 15 | > 15 | > 0.66 | > 0.66 | > 1.39 | > 1.39 | < 1.04 | < 1.04 | 1 to 5 nM
4 | C[C@H]1CN(Cc2cc(C(=O)Nc3cccc(C4(Cc5nncn5C)COC4)c3)nc(C3CC3)c2)CCC1(F)F [Compound 33, 6-cyclopropyl-4-{[(3S)-4,4-difluoro-3-methylpiperidin-1-yl]methyl}-N-(3-{3-[(4-methyl-1,2,4-triazol-3-yl)methyl]oxetan-3-yl}phenyl)pyridine-2-carboxamide] | 1 to 5 nM | – | 11 to 15 | 11 to 15 | < 0.33 | 0.34 to 0.66 | < 1.24 | < 1.24 | 1.05 to 1.14 | 1.05 to 1.14 | –
5 | C[C@H]1CCCN(Cc2cc3c(c(C4CC4)n2)CN(c2cccc(C4(Cc5nncn5C)COC4)c2)C3=O)C1 [Compound 35, (S)-4-Cyclopropyl-2-(3-(3-((4-methyl-4H-1,2,4-triazol-3-yl)methyl)oxetan-3-yl)phenyl)-6-((3-methylpiperidin-1-yl)methyl)-2,3-dihydro-1H-pyrrolo[3,4-c]pyridin-1-one] | – | – | 11 to 15 | > 15 | 0.34 to 0.66 | > 0.66 | < 1.24 | 1.25 to 1.39 | 1.05 to 1.14 | > 1.14 | 1 to 5 nM
6 | C[C@H]1CCCN(Cc2cc3c(c(C(F)(F)F)c2)CN(c2cccc(C4(Cc5nncn5C(F)F)COC4)c2)C3=O)C1 [Compound 36, 2-[3-(3-{[4-(difluoromethyl)-1,2,4-triazol-3-yl]methyl}oxetan-3-yl)phenyl]-6-{[(3S)-3-methylpiperidin-1-yl]methyl}-4-(trifluoromethyl)-3H-isoindol-1-one] | – | < 1 nM | > 15 | > 15 | > 0.66 | > 0.66 | > 1.39 | > 1.39 | > 1.14 | > 1.14 | < 1 nM
7 | C[C@H]1CCCN(Cc2cc3c(c(C4CC4)n2)CN(c2cccc(C4(Cc5nncn5C(F)F)COC4)c2)C3=O)C1 [Compound 37, 4-cyclopropyl-2-[3-(3-{[4-(difluoromethyl)-1,2,4-triazol-3-yl]methyl}oxetan-3-yl)phenyl]-6-{[(3S)-3-methylpiperidin-1-yl]methyl}-3H-pyrrolo[3,4-c]pyridin-1-one] | – | 1 to 5 nM | > 15 | > 15 | > 0.66 | > 0.66 | > 1.39 | > 1.39 | > 1.14 | > 1.14 | 1 to 5 nM
8 | C[C@@H]1CN(Cc2cc3c(c(C4CC4)n2)CN(c2cccc(C4(Cc5nncn5C(F)F)COC4)c2)C3=O)CCC1(F)F [Compound 38, 4-cyclopropyl-6-{[(3R)-4,4-difluoro-3-methylpiperidin-1-yl]methyl}-2-[3-(3-{[4-(difluoromethyl)-1,2,4-triazol-3-yl]methyl}oxetan-3-yl)phenyl]-3H-pyrrolo[3,4-c]pyridin-1-one] | – | 1 to 5 nM | > 15 | > 15 | > 0.66 | > 0.66 | > 1.39 | > 1.39 | > 1.14 | > 1.14 | 1 to 5 nM
9 | CCOc1cc(C2(Cc3nncn3C)COC2)cc(N2Cc3c(cc(CN4CCC[C@H](C)C4)nc3C3CC3)C2=O)n1 [Compound 40, 4-cyclopropyl-2-(6-ethoxy-4-{3-[(4-methyl-1,2,4-triazol-3-yl)methyl]oxetan-3-yl}pyridin-2-yl)-6-{[(3S)-3-methylpiperidin-1-yl]methyl}-3H-pyrrolo[3,4-c]pyridin-1-one] | – | < 1 nM | > 15 | > 15 | > 0.66 | > 0.66 | > 1.39 | > 1.39 | > 1.14 | > 1.14 | < 1 nM
10 | CCOc1cc(C2(Cc3nncn3C)COC2)cc(N2Cc3c(cc(CN4CCC(F)(F)[C@H](C)C4)nc3C3CC3)C2=O)n1 [Compound 41, 4-cyclopropyl-6-{[(3R)-4,4-difluoro-3-methylpiperidin-1-yl]methyl}-2-(6-ethoxy-4-{3-[(4-methyl-1,2,4-triazol-3-yl)methyl]oxetan-3-yl}pyridin-2-yl)-3H-pyrrolo[3,4-c]pyridin-1-one] | – | – | > 15 | > 15 | > 0.66 | > 0.66 | > 1.39 | > 1.39 | > 1.14 | > 1.14 | 1 to 5 nM
11 | CCNc1cc(C2(Cc3nncn3C)COC2)cc(N2Cc3c(cc(CN4CCC(F)(F)[C@H](C)C4)nc3C3CC3)C2=O)n1 [Compound 42, (R)-4-cyclopropyl-6-((4,4-difluoro-3-methylpiperidin-1-yl)methyl)-2-(6-(ethylamino)-4-(3-((4-methyl-4H-1,2,4-triazol-3-yl)methyl)oxetan-3-yl)pyridin-2-yl)-2,3-dihydro-1H-pyrrolo[3,4-c]pyridin-1-one] | – | – | > 15 | > 15 | > 0.66 | > 0.66 | > 1.39 | > 1.39 | > 1.14 | > 1.14 | 1 to 5 nM
12 | CCNc1cc(C2(Cc3nncn3C)COC2)cc(N2Cc3c(cc(CN4CCC[C@H](C)C4)nc3C3CC3)C2=O)n1 [Compound 43, 4-cyclopropyl-2-[6-(ethylamino)-4-{3-[(4-methyl-1,2,4-triazol-3-yl)methyl]oxetan-3-yl}pyridin-2-yl]-6-{[(3S)-3-methylpiperidin-1-yl]methyl}-3H-pyrrolo[3,4-c]pyridin-1-one] | – | – | > 15 | > 15 | > 0.66 | > 0.66 | > 1.39 | > 1.39 | > 1.14 | > 1.14 | 1 to 5 nM
